Counter-ions that a name gives are not always drawn. Like-named read-outs stand apart in the source and are kept apart here.
What was measured:
[1] = LCMS analysis of the reaction of the dyes with H2O2 in PBS; format: physicochemical; conditions: for dye molecules converted into the phenol: 1 hour incubation with 100 µM H2O2, PBS
Protocol: Next, the change in bulk fluorescence emission was assessed upon addition of H2O2 at a concentration realistic for cellular oxidative stress (100 µM). […] Furthermore, the kinetics could be followed, with all fluorescence traces increasing at varying rates in a linear regime over a 5 h period (figure 2c). As the oxidation reaction is predominantly irreversible, these sensors record the total ROS exposure to a system, rather than the equilibrium value. […] These measurements confirmed that the change in fluorescence intensity arose from the conversion of the boronic ester into the hydroxyl functionality. By contrast, no significant change in the chemical composition of the dye solutions occurred over the same time frame without addition of H2O2 (electronic supplementary material, figure S4).
LCMS analysis of the reaction of the dyes with H2O2 was performed using a Waters Acquity H-class UPLC coupled with a single quadrupole Waters SQD2. ACQUITY UPLC CSH C18 Column, 130 Å, 1.7 µm, 2.1 mm × 50 mm was used as the UPLC column. The conditions of the UPLC method are as follows:
Solvent A: Water +0.1% Formic acid; Solvent B: Acetonitrile +0.1% Formic acid; Gradient of 0-4 minutes 5% - 100%B + 1 minute 100% B with re-equilibration time of 2 minutes. Flow rate: 0.6 ml/min; Column temperature of 40 °C; Injection volume of […]. The signal was monitored at 254 nm.
Samples were prepared by diluting the stock solutions of the BE and mBE compounds (prepared as previously described) into PBS (pH 7.4) to a concentration of 30 µM. The diluted dye solutions were analysed via LCMS directly after dilution (t = 0 hour) as well as 1 hour after dilution (t = 1 hour) (Supplementary Table 1). To proof the oxidative cleavage of the boronic esters to a phenol triggered by H2O2, the diluted dye solutions were exposed to 100 µM H2O2 and analysed via LCMS after 1 hour of incubation (Supplementary Table 1).

[2] = Bulk fluorescence response of dyes to H2O2; conditions: for increase in bulk fluorescence upon addition of H2O2: 100 µM H2O2, dye 5 µM, PBS pH 7.4, relative to free dye; for gradient of fluorescence intensity versus time curve: dyes incubated with H2O2, recorded over 5 h at 20 min intervals
Protocol: Next, the change in bulk fluorescence emission was assessed upon addition of H2O2 at a concentration realistic for cellular oxidative stress (100 µM) [31]. […] As the oxidation reaction is predominantly irreversible, these sensors record the total ROS exposure to a system, rather than the equilibrium value.

[3] = Bulk photophysical properties of free dyes in PBS; conditions: free dye; for Stokes shift (λem − λabs) / brightness (ε × ΦFl) / maximum absorption wavelength (λabs) / maximum emission wavelength (λem) / molar extinction coefficient ε: PBS pH 7.4; for fluorescence quantum yield ΦFl: PBS pH 7.4, relative to a standard
Protocol: Several photophysical quantities were determined from ensemble absorption and emission data, using techniques previously described [38]. These included absorption maxima (λAbs), emission maxima (λEm) Stokes shift, molar extinction coefficient (ε) and fluorescence quantum yield (ΦFl).

H2O2 and αSyn aggregates = H2O2 and αSyn aggregates (Homo sapiens, UniProt P37840); conditions: 100 µM H2O2 (60 min) and approx. 10 µM αSyn aggregates, dye 5 µM
αSyn aggregates [4] = target: T1, αSyn aggregates (Homo sapiens, UniProt P37840); assay: Limit of detection of oxidized probes by SAVE imaging; conditions: first dye concentration deviating from mean background by 3 s.d.
Protocol: To quantify this process, we determined the number of detectable aggregates, before and after addition of H2O2 and assumed constant surface coverage. […] The limit of detection (LOD) of oxidized BE (BE-Ox) and mBE (mBE-Ox) probes to αSyn aggregates was determined using SAVE imaging (electronic supplementary material, figure S8).
Glass cover-slides for SAVE fluorescence imaging were cleaned for 1 h using an argon plasma (PDC-002, Harrick Plasma) and the slide surface incubated with poly-L-lysine (PLK) for 30 min as previously described [13]. […] The working solution (50 µl) was added to the clean, PLK coated cover-slide and incubated for 2 min. The slide was then washed twice with PBS and imaged. H2O2 (100 µM) was then added directly to the cover-slide and the sample imaged again.

αSyn aggregates [5] = target: T1, αSyn aggregates; assay: SAVE (TIRF) single-aggregate fluorescence imaging, density of detected aggregates; set-up: made in house; host or cells: Escherichia coli
Protocol: Fluorescence imaging experiments were carried out with a bespoke inverted microscope (Nikon, Eclipse, TE2000-U) set-up optimized for TIRF measurements. […] Images were recorded at 100 ms exposure for 200 frames using automation through Micro-manager software.
Images were analysed with a bespoke ImageJ [41] macro. […] Pixels of intensity above background were determined with a fixed threshold and αSyn aggregate species in each field of view identified and counted. […] Five fields of view in the presence of H2O2 and five in the absence of H2O2 were analysed for each dye. Error bars represent the standard deviations of the species density between the five fields of view.

αSyn aggregates [6] = target: T1, αSyn aggregates; assay: Surface plasmon resonance equilibrium affinity to immobilized αSyn aggregates; format: binding; set-up: made in house; host or cells: Escherichia coli; conditions: SPR, 25°C, before incubation with H2O2
αSyn aggregates [7] = target: T1, αSyn aggregates; assay: Bulk fluorescence response of dyes to preformed αSyn aggregates; set-up: made in house; host or cells: Escherichia coli; conditions: approx. 10 µM preformed αSyn aggregates, dye 5 µM, PBS pH 7.4
[8] = cited from earlier work
[9] = 30 µM in PBS pH 7.4, 60 minutes with 100 μM H2O2, UV 254 nm
[10] = 30 µM in PBS pH 7.4, time point 0 minutes, no H2O2, UV 254 nm
[11] = 30 µM in PBS pH 7.4, time point 60 minutes, no H2O2, UV 254 nm
[12] = after addition of 100 µM H2O2 (post-oxidation)
[13] = before addition of H2O2 (pre-oxidized)

Row | Oxidized (phenol derivative) Rel. Area [1, 9] | Hydrolyzed (boronic acid derivative) Rel. Area [1, 10] | Hydrolyzed (boronic acid derivative) Rel. Area [1, 11] | dye molecules converted into the phenol [1] | Stokes shift (λem − λabs) [3] | brightness (ε × ΦFl) [3] | maximum absorption wavelength (λabs) [3] | maximum emission wavelength (λem) [3] | molar extinction coefficient ε [3] | fluorescence quantum yield ΦFl [3] | Hydrolyzed (boronic acid derivative) Rel. Area [1, 9] | 'compounded' increase in fluorescence with H2O2 and αSyn aggregates together (H2O2 and αSyn aggregates) | density of single αSyn aggregate species detected (αSyn aggregates [5]; [12]) | density of single αSyn aggregate species detected (αSyn aggregates [5]; [13]) | Compound | increase in bulk fluorescence upon addition of H2O2 [2] | gradient of fluorescence intensity versus time curve [2] | other results
1 | 100% | 65% | 47% | 100% | 86 nm | 384 M⁻¹ cm⁻¹ | 330 nm | 416 nm | 6400 M⁻¹ cm⁻¹ | 0.06 | – | – | – | – | COc1ccc2nc(-c3ccc(B4OC(C)(C)C(C)(C)O4)cc3)sc2c1 [BE01, 6-methoxy-2-(4-(4,4,5,5-tetramethyl-1,3,2-dioxaborolan-2-yl)phenyl)benzo[d]thiazole] | 2.0 fold | 0.112 ± 0.002 min⁻¹ | Boronate ester Rel. Area [1, 10]: 35%; Boronate ester Rel. Area [1, 11]: 53%; H2O2 concentration detected ([2]; 5 µM dye, 5 h incubation with 0-100 µM H2O2): greater than 1 µM
2 | 90% | 100% | 100% | 90% | 82 nm | 168 M⁻¹ cm⁻¹ | 330 nm | 412 nm | 4200 M⁻¹ cm⁻¹ | 0.04 | 10% | – | – | – | COc1ccc2nc(-c3ccc(B4OCC(C)(C)CO4)cc3)sc2c1 [BE02, 2-(4-(5,5-dimethyl-1,3,2-dioxaborinan-2-yl)phenyl)-6-methoxybenzo[d]thiazole] | – | 0.017 min⁻¹ | –
3 | 64% | 100% | 100% | 73% | 87 nm | 168 M⁻¹ cm⁻¹ | 330 nm | 417 nm | 16 800 M^−1 cm^−1 | 0.01 | 27% | no additional change in fluorescence | 0.0051 ± 0.0004 aggregates/µm^2 | 0.0040 ± 0.0004 aggregates/µm^2 | COc1ccc2c(c1)sc(-c1ccc(B3OC(C)(C)C(C)(C)O3)cc1)[n+]2C.F[B-](F)(F)F [mBE01, 6-Methoxy-3-methyl-2-(4-(4,4,5,5-tetramethyl-1,3,2-dioxaborolan-2-yl)phenyl)benzo[d]thiazol-3-ium tetrafluoroborate] | 16.0 fold | 0.011 min⁻¹ | Oxidized, de-methylated Rel. Area [1, 9]: 9.47%; Kd (αSyn aggregates [6]): 35.2 ± 5.7 µM; increase in fluorescence intensity upon addition of αSyn aggregates (αSyn aggregates [7]): 7.1 fold
4 | 70% | 100% | 100% | 88% | 87 nm | 148 M⁻¹ cm⁻¹ | 330 nm | 417 nm | 14 800 M^−1 cm^−1 | 0.01 | 12% | no additional change in fluorescence | 0.0060 ± 0.0005 aggregates/µm^2 | 0.006 ± 0.001 aggregates/µm^2 | COc1ccc2c(c1)sc(-c1ccc(B3OCC(C)(C)CO3)cc1)[n+]2C.F[B-](F)(F)F [mBE02, 2-(4-(5,5-Dimethyl-1,3,2-dioxaborinan-2-yl)phenyl)-6-methoxy-3-methylbenzo[d]thiazol-3-ium tetrafluoroborate] | 3.6 fold | 0.015 min⁻¹ | Oxidized, de-methylated Rel. Area [1, 9]: 18.63%; Kd (αSyn aggregates [6]): 33.5 ± 3.9 µM; increase in fluorescence intensity upon addition of αSyn aggregates (αSyn aggregates [7]): 3.8 fold
5 | – | – | – | – | – | – | – | – | – | – | – | – | – | – | C=C[C@H]1C[N@@]2CC[C@H]1C[C@H]2[C@H](O)c1ccnc2ccc(OC)cc12 [quinine sulfate] | – | – | ΦFl of reference standard ([8]; in 0.1 M H2SO4): 0.5
6 | – | – | – | – | – | – | – | – | – | – | – | – | – | – | O=C(O)c1ccccc1C1=c2cc3c4c(c2Oc2c1cc1c5c2CCCN5CCC1)CCC[N+]=4CCC3.[Cl-] [rhodamine 101] | – | – | ΦFl of reference standard ([8]; in ethanol): 1

Row | Compound | Oxidized (phenol derivative) Rel. Area [1, 9] | Hydrolyzed (boronic acid derivative) Rel. Area [1, 10] | Hydrolyzed (boronic acid derivative) Rel. Area [1, 11] | dye molecules converted into the phenol [1] | Stokes shift (λem − λabs) [3] | brightness (ε × ΦFl) [3] | maximum absorption wavelength (λabs) [3] | maximum emission wavelength (λem) [3] | molar extinction coefficient ε [3] | fluorescence quantum yield ΦFl [3] | Hydrolyzed (boronic acid derivative) Rel. Area [1, 9] | 'compounded' increase in fluorescence with H2O2 and αSyn aggregates together (H2O2 and αSyn aggregates) | density of single αSyn aggregate species detected (αSyn aggregates [5]; [12]) | density of single αSyn aggregate species detected (αSyn aggregates [5]; [13]) | increase in bulk fluorescence upon addition of H2O2 [2] | gradient of fluorescence intensity versus time curve [2] | other results
7 | Cc1ccc2c(c1)sc(-c1ccc(N(C)C)cc1)[n+]2C [ThT, thioflavin t, reference compound] | – | – | – | – | – | 15 M⁻¹ cm⁻¹ | 412 nm | 486 nm | 37 500 M^−1 cm^−1 | 0.00 | – | no change in fluorescence | 0.026 ± 002 aggregates/µm^2 | 0.025 ± 0.004 aggregates/µm^2 | no change | – | limit of detection (LOD) to αSyn aggregates (αSyn aggregates [4]): 2.40 ± 0.64 µM
